In the supplement of paper PMC10307832:

Key:
Assay in all cases: relative viability (nuclei count vs DMSO), 5 days (fraction); higher = more cells survive
NCI-H1395 = test system: NCI-H1395
How it was run: (§1)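 Dosing by pin tool came one day after lung cancer cell lines were seeded in 1536-well plates, using either one drug or a fixed anchor-drug dose plus five library-drug doses (not always all listed) in √10 steps. After 5 days, nuclei were counted on 4× images. Relative viability is treated-well nuclei count divided by vehicle-well nuclei count, and values are medians of duplicate plates.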

NCI-H1355 = test system: NCI-H1355
How it was run: as §1

201T = test system: 201T
How it was run: as §1

SK-MES-1 = test system: SK-MES-1
How it was run: as §1

HCC-366 = test system: HCC-366
How it was run: as §1

NCI-H2085 = test system: NCI-H2085
How it was run: as §1

SK-LU-1 = test system: SK-LU-1
How it was run: as §1

NCI-H358 = test system: NCI-H358
How it was run: as §1

NCI-H647 = test system: NCI-H647
How it was run: as §1

NCI-H322M = test system: NCI-H322M
How it was run: as §1

HCC-78 = test system: HCC-78
How it was run: as §1

PC-14 = test system: PC-14
How it was run: as §1

NCI-H1975 = test system: NCI-H1975
How it was run: as §1

BEN = test system: BEN
How it was run: as §1

LU99A = test system: LU99A
How it was run: as §1

UMC-11 = test system: UMC-11
How it was run: as §1

NCI-H2087 = test system: NCI-H2087
How it was run: as §1

NCI-H2228 = test system: NCI-H2228
How it was run: as §1

NCI-H2126 = test system: NCI-H2126
How it was run: as §1

LOU-NH91 = test system: LOU-NH91
How it was run: as §1

HCC-44 = test system: HCC-44
How it was run: as §1

NCI-H1734 = test system: NCI-H1734
How it was run: as §1

Q: Which results are given for Oc1nc(-c2ccc(C(F)(F)F)cc2)nc2c1CSCC2 [XAV939] + Nc1nc2[nH]cc(CCc3ccc(C(=O)N[C@@H](CCC(=O)O)C(=O)O)cc3)c2c(=O)[nH]1 [Pemetrexed] (partner 0.2 µM)?
A: relative viability (NCI-H1395; first compound 0.08 µM): 0.875; relative viability (NCI-H1395; first compound 0.253 µM): 0.832; relative viability (NCI-H1395; first compound 0.8 µM): 0.805; relative viability (NCI-H1395; first compound 2.53 µM): 0.908; relative viability (NCI-H1355; first compound 0.08 µM): 1.02; relative viability (NCI-H1355; first compound 0.253 µM): 0.944; relative viability (NCI-H1355; first compound 0.8 µM): 0.962; relative viability (NCI-H1355; first compound 2.53 µM): 0.852; relative viability (201T; first compound 0.08 µM): 0.359; relative viability (201T; first compound 0.253 µM): 0.338; relative viability (201T; first compound 0.8 µM): 0.374; relative viability (201T; first compound 2.53 µM): 0.288; relative viability (SK-MES-1; first compound 0.08 µM): 1.01; relative viability (SK-MES-1; first compound 0.253 µM): 0.778; relative viability (SK-MES-1; first compound 0.8 µM): 0.835; relative viability (SK-MES-1; first compound 2.53 µM): 0.768; relative viability (HCC-366; first compound 0.08 µM): 0.179; relative viability (HCC-366; first compound 0.253 µM): 0.131; relative viability (HCC-366; first compound 0.8 µM): 0.142; relative viability (HCC-366; first compound 2.53 µM): 0.117; relative viability (NCI-H2085; first compound 0.08 µM): 1.02; relative viability (NCI-H2085; first compound 0.253 µM): 0.801; relative viability (NCI-H2085; first compound 0.8 µM): 0.878; relative viability (NCI-H2085; first compound 2.53 µM): 0.837; relative viability (SK-LU-1; first compound 0.08 µM): 1.05; relative viability (SK-LU-1; first compound 0.253 µM): 1; relative viability (SK-LU-1; first compound 0.8 µM): 1.1; relative viability (SK-LU-1; first compound 2.53 µM): 0.947; relative viability (NCI-H358; first compound 0.08 µM): 0.168; relative viability (NCI-H358; first compound 0.253 µM): 0.162; relative viability (NCI-H358; first compound 0.8 µM): 0.165; relative viability (NCI-H358; first compound 2.53 µM): 0.171; relative viability (NCI-H647; first compound 0.08 µM): 0.168; relative viability (NCI-H647; first compound 0.253 µM): 0.179; relative viability (NCI-H647; first compound 0.8 µM): 0.166; relative viability (NCI-H647; first compound 2.53 µM): 0.146; relative viability (NCI-H322M; first compound 0.08 µM): 0.585; relative viability (NCI-H322M; first compound 0.253 µM): 0.561; relative viability (NCI-H322M; first compound 0.8 µM): 0.548; relative viability (NCI-H322M; first compound 2.53 µM): 0.512; relative viability (HCC-78; first compound 0.08 µM): 0.881; relative viability (HCC-78; first compound 0.253 µM): 0.829; relative viability (HCC-78; first compound 0.8 µM): 0.846; relative viability (HCC-78; first compound 2.53 µM): 0.942; relative viability (PC-14; first compound 0.08 µM): 0.14; relative viability (PC-14; first compound 0.253 µM): 0.12; relative viability (PC-14; first compound 0.8 µM): 0.123; relative viability (PC-14; first compound 2.53 µM): 0.118; relative viability (NCI-H1975; first compound 0.08 µM): 0.27; relative viability (NCI-H1975; first compound 0.253 µM): 0.273; relative viability (NCI-H1975; first compound 0.8 µM): 0.286; relative viability (NCI-H1975; first compound 2.53 µM): 0.246; relative viability (BEN; first compound 0.08 µM): 0.651; relative viability (BEN; first compound 0.253 µM): 0.727; relative viability (BEN; first compound 0.8 µM): 0.817; relative viability (BEN; first compound 2.53 µM): 0.731; relative viability (LU99A; first compound 0.08 µM): 0.19; relative viability (LU99A; first compound 0.253 µM): 0.167; relative viability (LU99A; first compound 0.8 µM): 0.184; relative viability (LU99A; first compound 2.53 µM): 0.181; relative viability (UMC-11; first compound 0.08 µM): 0.893; relative viability (UMC-11; first compound 0.253 µM): 0.635; relative viability (UMC-11; first compound 0.8 µM): 0.731; relative viability (UMC-11; first compound 2.53 µM): 0.636; relative viability (NCI-H2087; first compound 0.08 µM): 0.706; relative viability (NCI-H2087; first compound 0.253 µM): 0.636; relative viability (NCI-H2087; first compound 0.8 µM): 0.64; relative viability (NCI-H2087; first compound 2.53 µM): 0.552; relative viability (NCI-H2228; first compound 0.08 µM): 0.332; relative viability (NCI-H2228; first compound 0.253 µM): 0.341; relative viability (NCI-H2228; first compound 0.8 µM): 0.29; relative viability (NCI-H2228; first compound 2.53 µM): 0.271; relative viability (NCI-H2126; first compound 0.08 µM): 0.671; relative viability (NCI-H2126; first compound 0.253 µM): 0.542; relative viability (NCI-H2126; first compound 0.8 µM): 0.665; relative viability (NCI-H2126; first compound 2.53 µM): 0.598; relative viability (LOU-NH91; first compound 0.08 µM): 0.461; relative viability (LOU-NH91; first compound 0.253 µM): 0.359; relative viability (LOU-NH91; first compound 0.8 µM): 0.391; relative viability (LOU-NH91; first compound 2.53 µM): 0.349; relative viability (HCC-44; first compound 0.08 µM): 0.614; relative viability (HCC-44; first compound 0.253 µM): 0.59; relative viability (HCC-44; first compound 0.8 µM): 0.636; relative viability (HCC-44; first compound 2.53 µM): 0.616; relative viability (NCI-H1734; first compound 0.08 µM): 0.444; relative viability (NCI-H1734; first compound 0.253 µM): 0.405; relative viability (NCI-H1734; first compound 0.8 µM): 0.417; relative viability (NCI-H1734; first compound 2.53 µM): 0.392
